Values after ≈ are worked out from the molar mass of the structure shown. Active and inactive are the calls of the source. No cut-off for these calls is given here. Positions of bridges follow the written chain, without caps; N, C: chain ends. Non-standard residues stand in square brackets, D forms with d. Residues, ends and D or L forms follow the SMILES beside them. *: point of attachment. Heptanoyl(6-Me) = CC(C)CCCCC(=O)*; dDab = NCC[C@@H](N)C(=O)O; Dab = NCC[C@H](N)C(=O)O
What was measured:
Escherichia coli = experiment: Antibacterial activity against Escherichia coli KCTC 1682 strain assessed as bacterial growth inhibition measured at 18 to 24 hrs by microdilution assay; assay type: functional; conditions: time 18-24 hrs
Pseudomonas aeruginosa [1] = experiment: Antibacterial activity against Pseudomonas aeruginosa KCTC 1637 strain assessed as bacterial growth inhibition measured at 18 to 24 hrs by microdilution assay; assay type: functional; conditions: time 18-24 hrs
[2] = tested on: Staphylococcus epidermidis; experiment: Antibacterial activity against Staphylococcus epidermidis KCTC 1917 strain assessed as bacterial growth inhibition measured at 18 to 24 hrs by microdilution assay; assay type: functional; conditions: time 18-24 hrs
Staphylococcus aureus [3] = experiment: Antibacterial activity against Staphylococcus aureus KCTC 1621 strain assessed as bacterial growth inhibition measured at 18 to 24 hrs by microdilution assay; assay type: functional; conditions: time 18-24 hrs
Erythrocyte = experiment: Hemolytic activity in sheep RBC assessed as minimal hemolytic concentration causing 10% hemolysis incubated for 1 hr by ELISA; assay type: toxicity, cell-based, Ovis aries
Lipopolysaccharide (LPS) [4] = experiment: Binding affinity to Escherichia coli O111:B4 lipopolysaccharide assessed as suppression of FTIC labeled LPS binding to mouse RAW264.7 cells at 20 ug/ml pretreated with LPS followed by compound addition by flow cytometer assay (reference value: 67.4%); assay type: cell-based; conditions: dose 20.0 µg/ml
Lipopolysaccharide (LPS) [5] = experiment: Binding affinity to Escherichia coli O111:B4 lipopolysaccharide assessed as suppression of FTIC labeled LPS binding to mouse RAW264.7 cells at 20 ug/ml pretreated LPS with cells for 1 hr followed by compound addition measured after 1 hr by flow cytometer assay (reference value: 48.12%); assay type: cell-based; conditions: dose 20.0 µg/ml
Staphylococcus aureus [6] = experiment: Antibacterial activity against methicillin-resistant Staphylococcus aureus CCARM 3089 strain assessed as bacterial growth inhibition measured at 18 to 24 hrs by microdilution assay; assay type: functional; conditions: time 18-24 hrs
Staphylococcus aureus [7] = experiment: Antibacterial activity against methicillin-resistant Staphylococcus aureus CCARM 3090 strain assessed as bacterial growth inhibition measured at 18 to 24 hrs by microdilution assay; assay type: functional; conditions: time 18-24 hrs
Staphylococcus aureus [8] = experiment: Antibacterial activity against methicillin-resistant Staphylococcus aureus CCARM 3095 strain assessed as bacterial growth inhibition measured at 18 to 24 hrs by microdilution assay; assay type: functional; conditions: time 18-24 hrs
Pseudomonas aeruginosa [9] = experiment: Antibacterial activity against multidrug-resistant Pseudomonas aeruginosa CCARM 2095 strain assessed as bacterial growth inhibition measured at 18 to 24 hrs by microdilution assay; assay type: functional; conditions: time 18-24 hrs
Pseudomonas aeruginosa [10] = experiment: Antibacterial activity against multidrug-resistant Pseudomonas aeruginosa CCARM 2109 strain assessed as bacterial growth inhibition measured at 18 to 24 hrs by microdilution assay; assay type: functional; conditions: time 18-24 hrs
Enterococcus faecium = experiment: Antibacterial activity against vancomycin-resistant Enterococcus faecium ATCC 51559 strain assessed as bacterial growth inhibition measured at 18 to 24 hrs by microdilution assay; assay type: functional; conditions: time 18-24 hrs
Staphylococcus aureus [11] = experiment: Antibacterial activity against methicillin-resistant Staphylococcus aureus CCARM 3089 strain assessed as bacterial growth inhibition by checkerboard assay; assay type: functional
Pseudomonas aeruginosa [12] = experiment: Synergistic antibacterial activity against multidrug-resistant Pseudomonas aeruginosa CCARM 2095 strain assessed as bacterial growth inhibition by checkerboard assay; assay type: functional
Pseudomonas aeruginosa [13] = experiment: Additive antibacterial activity against multidrug-resistant Pseudomonas aeruginosa CCARM 2095 strain assessed as bacterial growth inhibition by checkerboard assay; assay type: functional
Pseudomonas aeruginosa [14] = experiment: Bactericidal activity against multidrug-resistant Pseudomonas aeruginosa CCARM 2095 measured after 24 hrs by time-kill kinetics assay; assay type: functional, organism-based
Pseudomonas aeruginosa [15] = experiment: Bacteriostatic activity against multidrug-resistant Pseudomonas aeruginosa CCARM 2095 measured after 24 hrs by time-kill kinetics assay; assay type: functional, organism-based
Pseudomonas aeruginosa [16] = experiment: Antibiofilm activity against multidrug-resistant Pseudomonas aeruginosa assessed as inhibition of biofilm formation; assay type: functional
Pseudomonas aeruginosa [17] = experiment: Antibiofilm activity against multidrug-resistant Pseudomonas aeruginosa assessed as biofilm eradication; assay type: functional

Molecule	MIC (Escherichia coli)	MIC (Pseudomonas aeruginosa [1])	MIC [2]	MIC (Staphylococcus aureus [3])	MHC (Erythrocyte)	also measured
N=C(N)NCCNc1nc(NCCNC(=N)N)nc(N2CCN(c3nc(NCCNC(=N)N)nc(NCCNC(=N)N)n3)C(Cc3ccccc3)C2)n1 (stereo not drawn)	21.8 µM (≈ 16 µg/mL)	21.8 µM (≈ 16 µg/mL)	21.8 µM (≈ 16 µg/mL)	21.8 µM (≈ 16 µg/mL)	> 348.2 µM	
N=C(N)NCCN(CCNC(=N)N)c1nc(NCc2ccccc2)nc(N2CC(Cc3ccccc3)N(c3nc(NCc4ccccc4)nc(N(CCNC(=N)N)CCNC(=N)N)n3)CC2Cc2ccccc2)n1 (stereo not drawn)	8.7 µM (≈ 8.75 µg/mL)	8.7 µM (≈ 8.75 µg/mL)	4.4 µM (≈ 4.42 µg/mL)	4.4 µM (≈ 4.42 µg/mL)	124.5 µM	
N=C(N)NCCCNc1nc(NCCCN)nc(N2CCN(c3nc(NCCCN)nc(NCCCN)n3)CC2Cc2ccccc2)n1 (stereo not drawn)	24 µM (≈ 16 µg/mL)	24 µM (≈ 16 µg/mL)	12 µM (≈ 7.98 µg/mL)	12 µM (≈ 7.98 µg/mL)	> 384 µM	
N=C(N)NCCCNc1nc(NCCCNC(=N)N)nc(N2CCN(c3nc(NCCCNC(=N)N)nc(NCCCNC(=N)N)n3)C(Cc3ccccc3)C2)n1 (stereo not drawn)	20.2 µM (≈ 16 µg/mL)	20.2 µM (≈ 16 µg/mL)	20.2 µM (≈ 16 µg/mL)	20.2 µM (≈ 16 µg/mL)	> 322.6 µM	
CC(C)CCCCC(=O)N[C@@H](CCN)C(=O)N[C@H](C(=O)N[C@@H](CCN)C(=O)N[C@H]1CCNC(=O)[C@H]([C@@H](C)O)NC(=O)[C@H](CCN)NC(=O)[C@H](CCN)NC(=O)[C@H](CC(C)C)NC(=O)[C@@H](Cc2ccccc2)NC(=O)[C@@H](CCN)NC1=O)[C@@H](C)O ({Heptanoyl(6-Me)}-[Dab]T[Dab][Dab][dDab][dF]L[Dab][Dab]T; lactam 4-C)						Flu intensity (Lipopolysaccharide (LPS) [4]): 12.3%; Flu intensity (Lipopolysaccharide (LPS) [5]): 45.3%
N=C(N)NCCCCNc1nc(NCCCCN)nc(N2CCN(c3nc(NCCCCN)nc(NCCCCN)n3)CC2Cc2ccccc2)n1 (stereo not drawn)	22.2 µM (≈ 16 µg/mL)	11.1 µM (≈ 8 µg/mL)	5.6 µM (≈ 4.04 µg/mL)	11.1 µM (≈ 8 µg/mL)	> 355.8 µM	
N=C(N)NCCCN(CCCNC(=N)N)c1nc(NCc2ccccc2)nc(N2CC(Cc3ccccc3)N(c3nc(NCc4ccccc4)nc(N(CCCNC(=N)N)CCCNC(=N)N)n3)CC2Cc2ccccc2)n1 (stereo not drawn)	16.5 µM (≈ 17.5 µg/mL)	8.2 µM (≈ 8.7 µg/mL)	4.1 µM (≈ 4.35 µg/mL)	4.4 µM (≈ 4.67 µg/mL)	226.4 µM	
NCCCN(CCCN)c1nc(NCc2ccccc2)nc(N2CC(Cc3ccccc3)N(c3nc(NCc4ccc5ccccc5c4)nc(N(CCCN)CCCN)n3)CC2Cc2ccccc2)n1 (stereo not drawn)	9.4 µM (≈ 8.87 µg/mL)	18.7 µM (≈ 17.6 µg/mL)	4.7 µM (≈ 4.43 µg/mL)	4.7 µM (≈ 4.43 µg/mL)	189.5 µM	
N=C(N)NCCCN(CCCNC(=N)N)c1nc(NCc2ccccc2)nc(N2CC(Cc3ccccc3)N(c3nc(NCc4ccc5ccccc5c4)nc(N(CCCNC(=N)N)CCCNC(=N)N)n3)CC2Cc2ccccc2)n1 (stereo not drawn)	31.4 µM (≈ 34.9 µg/mL)	7.8 µM (≈ 8.67 µg/mL)	3.9 µM (≈ 4.33 µg/mL)	15.7 µM (≈ 17.4 µg/mL)	56.8 µM	
COLISTIN						MIC (Staphylococcus aureus [6]): 27.7 µM; MIC (Staphylococcus aureus [7]): 27.7 µM; MIC (Staphylococcus aureus [8]): 13.8 µM; MIC (Pseudomonas aeruginosa [9]): 55.4 µM; MIC (Pseudomonas aeruginosa [10]): 27.7 µM; MIC (Enterococcus faecium): 13.8 µM; MIC (Staphylococcus aureus [11]): 512 µg/mL
NCCNc1nc(NCCN)nc(N2CCN(c3nc(NCCN)nc(NCCN)n3)C(Cc3ccccc3)C2)n1 (stereo not drawn)	56.4 µM (≈ 32 µg/mL)	28.2 µM (≈ 16 µg/mL)	56.4 µM (≈ 32 µg/mL)	56.4 µM (≈ 32 µg/mL)	> 451.1 µM	
NCCCNc1nc(NCCCN)nc(N2CC(Cc3ccccc3)N(c3nc(NCCCN)nc(NCCCN)n3)CC2Cc2ccccc2)n1 (stereo not drawn)	11.2 µM (≈ 7.99 µg/mL)	22.4 µM (≈ 16 µg/mL)	11.2 µM (≈ 7.99 µg/mL)	11.2 µM (≈ 7.99 µg/mL)	> 358.4 µM	
N=C(N)NCCCCNc1nc(NCCCCNC(=N)N)nc(N2CCN(c3nc(NCCCCNC(=N)N)nc(NCCCCNC(=N)N)n3)C(Cc3ccccc3)C2)n1 (stereo not drawn)	18.9 µM (≈ 16 µg/mL)	9.4 µM (≈ 7.96 µg/mL)	4.7 µM (≈ 3.98 µg/mL)	9.4 µM (≈ 7.96 µg/mL)	> 302.1 µM	
N=C(N)NCCN(CCNC(=N)N)c1nc(NCc2ccccc2)nc(N2CCN(c3nc(NCc4ccc5ccccc5c4)nc(N(CCNC(=N)N)CCNC(=N)N)n3)C(Cc3ccccc3)C2)n1 (stereo not drawn)	16.6 µM (≈ 16 µg/mL)	16.6 µM (≈ 16 µg/mL)	4.1 µM (≈ 3.96 µg/mL)	4.1 µM (≈ 3.96 µg/mL)	37.3 µM	
Cc1onc(-c2ccccc2)c1C(=O)N[C@@H]1C(=O)N2[C@@H]1SC(C)(C)[C@@H]2C(=O)O [OXACILLIN]						MIC (Staphylococcus aureus [6]): 2550 µM (≈ 1020 µg/mL); MIC (Staphylococcus aureus [7]): > 5100 µM; MIC (Staphylococcus aureus [8]): > 5100 µM; MIC (Pseudomonas aeruginosa [9]): 5100 µM (≈ 2050 µg/mL); MIC (Pseudomonas aeruginosa [10]): 5100 µM (≈ 2050 µg/mL); MIC (Enterococcus faecium): 2180 µM (≈ 873 µg/mL); MIC (Pseudomonas aeruginosa [12]): 1020 µg/mL; MIC (Pseudomonas aeruginosa [13]): 1020 µg/mL; MIC (Staphylococcus aureus [11]): 1020 µg/mL; Activity (Pseudomonas aeruginosa [14]): inactive; Activity (Pseudomonas aeruginosa [15]): inactive
O=C(O)c1cn(C2CC2)c2cc(N3CCNCC3)c(F)cc2c1=O [CIPROFLOXACIN]						MIC (Staphylococcus aureus [6]): > 6180 µM; MIC (Staphylococcus aureus [7]): > 6180 µM; MIC (Staphylococcus aureus [8]): > 6180 µM; MIC (Pseudomonas aeruginosa [9]): 3090 µM (≈ 1020 µg/mL); MIC (Pseudomonas aeruginosa [10]): > 6180 µM; MIC (Enterococcus faecium): 1550 µM (≈ 512 µg/mL); MIC (Pseudomonas aeruginosa [12]): 1020 µg/mL; MIC (Pseudomonas aeruginosa [13]): 1020 µg/mL; MIC (Staphylococcus aureus [11]): 512 µg/mL; Activity (Pseudomonas aeruginosa [14]): inactive; Activity (Pseudomonas aeruginosa [15]): inactive
N=C(N)NCCCNc1nc(NCCCNC(=N)N)nc(N2CC(Cc3ccccc3)N(c3nc(NCCCNC(=N)N)nc(NCCCNC(=N)N)n3)CC2Cc2ccccc2)n1 (stereo not drawn)	9.1 µM (≈ 8.02 µg/mL)	18.1 µM (≈ 15.9 µg/mL)	9.1 µM (≈ 8.02 µg/mL)	4.5 µM (≈ 3.97 µg/mL)	> 290.3 µM	MBEC50 (Pseudomonas aeruginosa [16]): 18.1 µM; MBEC90 (Pseudomonas aeruginosa [16]): 145.2 µM; MBIC (Pseudomonas aeruginosa [16]): 36.3 µM; MBIC50 (Pseudomonas aeruginosa [16]): 4.5 µM; MBEC50 (Pseudomonas aeruginosa [17]): 18.1 µM; MBEC90 (Pseudomonas aeruginosa [17]): 145.2 µM
N=C(N)NCCCCNc1nc(NCCCCNC(=N)N)nc(N2CC(Cc3ccccc3)N(c3nc(NCCCCNC(=N)N)nc(NCCCCNC(=N)N)n3)CC2Cc2ccccc2)n1 (stereo not drawn)	8.5 µM (≈ 7.97 µg/mL)	8.5 µM (≈ 7.97 µg/mL)	8.5 µM (≈ 7.97 µg/mL)	8.5 µM (≈ 7.97 µg/mL)	> 273.2 µM	MBEC50 (Pseudomonas aeruginosa [16]): 17.1 µM; MBEC90 (Pseudomonas aeruginosa [16]): 68.3 µM; MBIC (Pseudomonas aeruginosa [16]): 34.1 µM; MBIC50 (Pseudomonas aeruginosa [16]): 8.5 µM; MBEC50 (Pseudomonas aeruginosa [17]): 17.1 µM; MBEC90 (Pseudomonas aeruginosa [17]): 68.3 µM
NCCN(CCN)c1nc(NCc2ccccc2)nc(N2CCN(c3nc(NCc4ccc5ccccc5c4)nc(N(CCN)CCN)n3)C(Cc3ccccc3)C2)n1 (stereo not drawn)	40 µM (≈ 31.9 µg/mL)	20 µM (≈ 15.9 µg/mL)	5 µM (≈ 3.99 µg/mL)	5 µM (≈ 3.99 µg/mL)	> 320 µM	
NCCCNc1nc(NCCCN)nc(N2CCN(c3nc(NCCCN)nc(NCCCN)n3)C(Cc3ccccc3)C2)n1 (stereo not drawn)	51.2 µM (≈ 31.9 µg/mL)	51.2 µM (≈ 31.9 µg/mL)	25.6 µM (≈ 15.9 µg/mL)	25.6 µM (≈ 15.9 µg/mL)	> 409.6 µM	
NCCCCNc1nc(NCCCCN)nc(N2CCN(c3nc(NCCCCN)nc(NCCCCN)n3)C(Cc3ccccc3)C2)n1 (stereo not drawn)	47 µM (≈ 31.9 µg/mL)	47 µM (≈ 31.9 µg/mL)	23.5 µM (≈ 16 µg/mL)	23.5 µM (≈ 16 µg/mL)	> 376.3 µM	

From ChEMBL document CHEMBL5331051, “Cationic, amphipathic small molecules based on a triazine-piperazine-triazine scaffold as a new class of antimicrobial agents” (Eur J Med Chem, 2022)
